Values after ≈ are worked out from the molar mass of the structure shown. Read-outs that look alike come from different tables or passages of the source. Square brackets hold non-standard residues; d marks the D form. Ends that are not written are not given here. Peptide text beside a SMILES is read from it.
Columns and labels:
[1] = tested on: Candida albicans (SC5314, ATCC 24433, ATCC 90028); assay type: cell-based; conditions: for MIC: SC5314
Method: Minimum inhibitory concentration assay. Minimum inhibitory concentrations (MIC) for the β-peptides were determined using the broth microdilution assay described by the Committee for Clinical and Laboratory Standards (formerly known as the National Committee for Clinical Laboratory Standards) (National Committee for Clinical Laboratory Standards Reference method for broth dilution antifungal susceptibility testing of yeasts: approved standard—second edition; NCCLS document M27-A2; NCCLS: Wayne, Pa., 2002). Three strains of Candida albicans were used: SC5314, ATCC 24433, and ATCC 90028. Cells were grown for 24 hours on Sabouraud dextrose agar at 30° C. After 24 hours of growth, the cells were suspended in 0.145 M saline, and the concentration was adjusted to between 1×10^6 cells/mL and 5×10^6 cells/mL in saline. The working suspension was obtained by diluting the suspension 1:1000 in RPMI 1640 (with L-glutamine and without sodium bicarbonate, Invitrogen) buffered with 0.145 mol/L 3-(N-morpholino) propanesulfonic acid (MOPS).
Twofold serial dilutions of stock solutions of α- or β-peptides or amphotericin B (Calbiochem, solubilized in dimethyl sulfoxide) were made in RPMI 1640, and 100 μL aliquots were put into 96-well plates (Falcon). An equal volume of the cell suspension was added to the wells for a total volume of 200 μL. Growth controls and sterility controls were included.
Plates were incubated at 35° C. for 48 h and then visually inspected for fungal growth. […] Experiments were performed in duplicate and repeated on at least two different days.

[2] = tested on: human red blood cells (hRBC); test: Hemolysis assay; assay type: cell-based
Method: Hemolysis assay. The hemolysis assay was performed using human red blood cells (hRBC) as described previously (Raguse, et al. J. Am. Chem. Soc. 2002, 124, 12774-12785; Porter, et al. J. Am. Chem. Soc. 2005, 127, 11516-11529). The hRBC were washed three times in TRIS-buffered saline (TBS; 10 mM TRIS, 150 mM NaCl, pH 7.2) and then diluted to a concentration of 1% (v/v) in TBS. The hRBC suspension (80 μL) was added to twofold dilutions of peptides in TBS (20 μL) in a 96-well plate (Falcon). Wells containing hRBC treated with 20 μL TBS provided a negative control, and wells with high concentrations of the peptide melittin (Sigma) served as a positive control. After incubating at 37° C. for 1 h, plates were centrifuged, and 50 μL of the supernatant was diluted with 50 μL of water in a fresh 96-well plate. The absorbance of the diluted supernatant was measured at 405 nm, and the percent hemolysis for each well was calculated from
[formula] where A405^peptide is the absorbance for the supernatant of hRBC treated with peptide, A405^buffer is the absorbance for the supernatant of hRBC in TBS, and A405^completlysis is the average absorbance for the supernatant of cells treated with melittin at concentrations of 50-400 μg/mL. Experiments were performed in duplicate on at least two different days. Biofilm Antifungal Susceptibility Testing

[3] = average over three C. albicans strains, pH 7, physiological ionic strength, Table 1 prints no unit
[4] = pH 7, physiological ionic strength

Compound | % Hemolysis at MIC [2] | Average MIC ([1]; SC5314, pH 7) | antifungal activity in the planktonic NCCLS assay (in words) [1, 4] | other results
CC(C)C[C@@H](CC(=O)N[C@H]1CCCC[C@@H]1C(=O)N[C@@H](CCCCN)CC(N)=O)NC(=O)C[C@H](CCCCN)NC(=O)[C@H]1CCCC[C@@H]1NC(=O)C[C@H](CC(C)C)NC(=O)C[C@H](CCCCN)NC(=O)[C@H]1CCCC[C@@H]1NC(=O)C[C@H](CC(C)C)NC(=O)C[C@@H](N)Cc1ccc(O)cc1 [β^3Tyr-(β^3Leu-ACHC-β^3Lys)3] |  |  |  | MIC [1]: 16 µg/mL (≈ 11.6 µM)
NCCCC[C@@H](CC(N)=O)NC(=O)C[C@H](Cc1ccccc1)NC(=O)[C@H]1CCCC[C@@H]1NC(=O)C[C@H](CCCCN)NC(=O)C[C@H](Cc1ccccc1)NC(=O)[C@H]1CCCC[C@@H]1NC(=O)C[C@H](CCCCN)NC(=O)C[C@H](Cc1ccccc1)NC(=O)[C@H]1CCCC[C@@H]1NC(=O)C[C@@H](N)Cc1ccc(O)cc1 [β-peptide 3, β^3Tyr-(ACHC-β^3Phe-β^3Lys)3] | 80% | 8 µg/mL |  | 
CC(C)C[C@@H](CC(=O)N[C@@H](CCCCN)CC(=O)N[C@H]1CCCC[C@@H]1C(=O)N[C@H](CC(=O)N[C@@H](CCCCN)CC(=O)N[C@H]1CCCC[C@@H]1C(=O)N[C@H](CC(=O)N[C@@H](CCCCN)CC(N)=O)CC(C)C)CC(C)C)NC(=O)[C@H]1CCCC[C@@H]1NC(=O)C[C@@H](N)Cc1ccc(O)cc1 [β-peptide 2, β^3Tyr-(ACHC-β^3Leu-β^3Lys)3] | 73% | 11 µg/mL |  | 
CC(C)[C@@H](CC(=O)N[C@@H](CCCCN)CC(N)=O)NC(=O)[C@H]1CCCC[C@@H]1NC(=O)C[C@H](CCCCN)NC(=O)C[C@@H](NC(=O)[C@H]1CCCC[C@@H]1NC(=O)C[C@H](CCCCN)NC(=O)C[C@@H](NC(=O)[C@H]1CCCC[C@@H]1N)C(C)C)C(C)C [β-peptide 6, (ACHC-β^3Val-β^3Lys)3] |  |  |  | % Hemolysis at MIC ([2]; human red blood cells, at the average MIC): 5%; Average MIC [1, 3]: 17 µg/mL; antifungal activity in the planktonic NCCLS assay (in words) ([1]; pH 7, physiological ionic strength, listed as 6): average MIC is indistinguishable relative to β^3Tyr-containing variant (1); antifungal activity in the planktonic NCCLS assay (in words) ([1]; pH 7, physiological ionic strength, listed as (ACHC-β^3Val-β^3Lys)3): showed activity in the planktonic assay
β^3Tyr-(ACHC-β^3Val-β^3Arg)3 |  |  | showed activity in the planktonic assay | 
C9-β^3Tyr-(ACHC-ACHC-β^3Lys)3 |  |  |  | Average MIC [1, 3]: 16 µg/mL
cecropin B (KWKVFKKIEKMGRNIRNGIVKAGPAIAVLGEAKAL; ends and bridges not checked; UniProt P01508 27-61, looked up) [amphiphilic host-defense α-peptide, reference compound] |  |  | neither cecropin B nor a magainin derivative displays any activity | 
NCCCC[C@@H](CC(N)=O)NC(=O)[C@H]1CCCC[C@@H]1NC(=O)[C@H]1CCCC[C@@H]1NC(=O)C[C@H](CCCCN)NC(=O)[C@H]1CCCC[C@@H]1NC(=O)[C@H]1CCCC[C@@H]1NC(=O)C[C@H](CCCCN)NC(=O)[C@H]1CCCC[C@@H]1NC(=O)[C@H]1CCCC[C@@H]1NC(=O)C[C@@H](N)Cc1ccc(O)cc1 [β-peptide 5, β^3Tyr-(ACHC-ACHC-β^3Lys)3] | 7% | 21 µg/mL |  | MIC [1]: 16 µg/mL (≈ 11.7 µM)
CC(C)[C@@H](CC(=O)N[C@@H](CCCCN)CC(=O)N[C@H](CC(=O)N[C@H](CC(=O)N[C@@H](CCCCN)CC(=O)N[C@H](CC(=O)N[C@H](CC(=O)N[C@@H](CCCCN)CC(N)=O)C(C)C)C(C)C)C(C)C)C(C)C)NC(=O)C[C@@H](NC(=O)C[C@@H](N)Cc1ccc(O)cc1)C(C)C [β-peptide 4, β^3Tyr-(β^3Val-β^3Val-β^3Lys)3] | 9% | 69 µg/mL |  | antifungal activity in the planktonic NCCLS assay (in words) ([1]; pH 7, physiological ionic strength, listed as 4): substantially weaker antifungal activity; antifungal activity in the planktonic NCCLS assay (in words) ([1]; pH 7, physiological ionic strength, listed as β^3Tyr-(β^3Val-β^3Val-β^3Lys)3): showed activity in the planktonic assay
CC[C@H](C)[C@H](NC(=O)CN)C(=O)NCC(=O)N[C@@H](CCCCN)C(=O)N[C@@H](Cc1ccccc1)C(=O)N[C@@H](CC(C)C)C(=O)N[C@@H](Cc1c[nH]cn1)C(=O)N[C@@H](C)C(=O)N[C@@H](C)C(=O)N[C@@H](CCCCN)C(=O)N[C@@H](CCCCN)C(=O)N[C@@H](Cc1ccccc1)C(=O)N[C@@H](C)C(=O)N[C@@H](CCCCN)C(=O)N[C@@H](C)C(=O)N[C@@H](Cc1ccccc1)C(=O)N[C@H](C(=O)N[C@@H](C)C(=O)N[C@@H](CCC(=O)O)C(=O)N[C@H](C(=O)N[C@@H](CCSC)C(=O)N[C@@H](CC(N)=O)C(=O)N[C@@H](CO)C(N)=O)[C@@H](C)CC)C(C)C [L-Magainin 2 derivative, reference compound] (H-GIGKFLHAAKKFAKAFVAEIMNS-NH2; N-terminus assumed) | 48% | >128 µg/mL | neither cecropin B nor a magainin derivative displays any activity | 
CC[C@@H](C)[C@@H](NC(=O)CN)C(=O)NCC(=O)N[C@H](CCCCN)C(=O)N[C@H](Cc1ccccc1)C(=O)N[C@H](CC(C)C)C(=O)N[C@H](Cc1c[nH]cn1)C(=O)N[C@H](C)C(=O)N[C@H](C)C(=O)N[C@H](CCCCN)C(=O)N[C@H](CCCCN)C(=O)N[C@H](Cc1ccccc1)C(=O)N[C@H](C)C(=O)N[C@H](CCCCN)C(=O)N[C@H](C)C(=O)N[C@H](Cc1ccccc1)C(=O)N[C@@H](C(=O)N[C@H](C)C(=O)N[C@H](CCC(=O)O)C(=O)N[C@@H](C(=O)N[C@H](CCSC)C(=O)N[C@H](CC(N)=O)C(=O)N[C@H](CO)C(N)=O)[C@H](C)CC)C(C)C [D-Magainin 2 derivative, reference compound] (H-G[dI]G[dK][dF][dL][dH][dA][dA][dK][dK][dF][dA][dK][dA][dF][dV][dA][dE][dI][dM][dN][dS]-NH2; N-terminus assumed) | 48% | >128 µg/mL | inactive | 
NCCCC[C@H](CC(N)=O)NC(=O)C[C@@H](Cc1ccccc1)NC(=O)[C@@H]1CCCC[C@H]1NC(=O)C[C@@H](CCCCN)NC(=O)C[C@@H](Cc1ccccc1)NC(=O)[C@@H]1CCCC[C@H]1NC(=O)C[C@@H](CCCCN)NC(=O)C[C@@H](Cc1ccccc1)NC(=O)[C@@H]1CCCC[C@H]1NC(=O)C[C@H](N)Cc1ccc(O)cc1 [(R)β^3Tyr-[(R,R)ACHC—(R)β^3Phe-(R)β^3Lys]3] |  |  |  | MIC [1]: 8 µg/mL (≈ 5.41 µM)
CC(C)[C@@H](CC(=O)N[C@H]1CCCC[C@@H]1C(=O)N[C@@H](CCCCN)CC(=O)N[C@H](CC(=O)N[C@H]1CCCC[C@@H]1C(=O)N[C@H]1CCCC[C@@H]1C(=O)N[C@@H](CCCCN)CC(N)=O)C(C)C)NC(=O)C[C@@H](NC(=O)C[C@@H](N)CCCCN)C(C)C [β-peptide 7, β^3Lys-β^3Val-β^3Val-ACHC-β^3Lys-β^3Val-ACHC-ACHC-β^3Lys] |  |  | lack of antifungal activity | 

Source: patent US9168329B2, “Beta-peptides with antifungal activity” (Wisconsin Alumni Research Foundation, priority 2006, dated 2015)
